Like-named read-outs stand apart in the source and are kept apart here. Values belong to the compound of their own block, whether it stands above or below them.
Legend:
[1] = biological target: T1, Nox1 (Homo sapiens, UniProt Q9Y5S8); assay: Luminol-based chemiluminescence; format: cell-based; settings: for ability to block Nox1-dependent ROS generation: HT29 cells, luminol-based CL assay
T1 sequence (Q9Y5S8 1-564): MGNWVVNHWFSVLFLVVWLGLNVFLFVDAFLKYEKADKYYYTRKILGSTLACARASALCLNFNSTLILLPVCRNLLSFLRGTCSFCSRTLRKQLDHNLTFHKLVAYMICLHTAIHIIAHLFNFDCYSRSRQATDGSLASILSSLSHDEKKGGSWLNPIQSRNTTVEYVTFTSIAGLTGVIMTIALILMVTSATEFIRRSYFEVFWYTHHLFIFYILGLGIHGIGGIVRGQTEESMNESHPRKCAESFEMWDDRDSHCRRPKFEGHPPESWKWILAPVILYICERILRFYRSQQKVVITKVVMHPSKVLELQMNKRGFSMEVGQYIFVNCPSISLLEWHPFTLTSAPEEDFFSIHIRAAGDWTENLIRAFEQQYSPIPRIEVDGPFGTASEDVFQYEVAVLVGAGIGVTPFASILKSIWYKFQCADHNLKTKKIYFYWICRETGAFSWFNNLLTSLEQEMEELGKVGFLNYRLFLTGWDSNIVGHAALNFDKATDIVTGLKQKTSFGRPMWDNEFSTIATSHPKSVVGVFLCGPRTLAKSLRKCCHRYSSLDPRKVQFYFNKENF
T1 sequence (P13498 2-195 partner limits assumed): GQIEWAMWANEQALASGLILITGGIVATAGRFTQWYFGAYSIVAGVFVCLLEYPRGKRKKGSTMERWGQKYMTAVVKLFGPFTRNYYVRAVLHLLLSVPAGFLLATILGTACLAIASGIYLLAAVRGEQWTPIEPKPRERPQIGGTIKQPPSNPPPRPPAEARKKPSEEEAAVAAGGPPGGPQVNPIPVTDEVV

[2] = test system: mitochondrial ROS generation in DLD1; assay: Mitochondrial ROS generation by MitoSox dye; format: cell-based, human; settings: compared to DMSO
[3] = biological target: T2, Nox2 (Homo sapiens, UniProt P04839); assay: Nox2 cell-free system; format: biochemical; settings: 10 μM
T2 sequence (P04839 2-570 limits assumed): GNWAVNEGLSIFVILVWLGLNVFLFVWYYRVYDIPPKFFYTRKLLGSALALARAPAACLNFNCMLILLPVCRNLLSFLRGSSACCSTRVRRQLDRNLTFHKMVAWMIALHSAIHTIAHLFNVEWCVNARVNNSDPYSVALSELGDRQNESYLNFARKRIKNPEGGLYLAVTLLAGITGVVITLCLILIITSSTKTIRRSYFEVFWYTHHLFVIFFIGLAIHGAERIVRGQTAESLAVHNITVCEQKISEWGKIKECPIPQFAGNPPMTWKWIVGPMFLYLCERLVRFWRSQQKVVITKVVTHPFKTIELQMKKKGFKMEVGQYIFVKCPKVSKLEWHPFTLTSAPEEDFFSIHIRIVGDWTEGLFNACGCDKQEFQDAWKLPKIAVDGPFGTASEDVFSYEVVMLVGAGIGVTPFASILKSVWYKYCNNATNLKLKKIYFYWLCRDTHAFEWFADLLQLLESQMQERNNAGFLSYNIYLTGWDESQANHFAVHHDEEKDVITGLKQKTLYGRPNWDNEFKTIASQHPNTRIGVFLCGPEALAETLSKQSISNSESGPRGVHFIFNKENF
T2 sequence (P13498 2-195 partner limits assumed): T1 sequence (P13498 2-195 partner limits assumed)

[4] = biological target: T2, Nox2; assay: Superoxide production in fMLP-treated human neutrophils; format: cell-based; settings: 10 μM
[5] = test system: DLD1 cells; assay: ECM degradation assay; format: cell-based, human; settings: SrcYF-transfected DLD1 cells, 10 μM, 1.5hrs
[6] = biological target: xanthine oxidase (XO) (Bos taurus, UniProt P80457); assay: Xanthine oxidase specificity assay; format: biochemical
xanthine oxidase (XO), sequence (P80457 2-1332): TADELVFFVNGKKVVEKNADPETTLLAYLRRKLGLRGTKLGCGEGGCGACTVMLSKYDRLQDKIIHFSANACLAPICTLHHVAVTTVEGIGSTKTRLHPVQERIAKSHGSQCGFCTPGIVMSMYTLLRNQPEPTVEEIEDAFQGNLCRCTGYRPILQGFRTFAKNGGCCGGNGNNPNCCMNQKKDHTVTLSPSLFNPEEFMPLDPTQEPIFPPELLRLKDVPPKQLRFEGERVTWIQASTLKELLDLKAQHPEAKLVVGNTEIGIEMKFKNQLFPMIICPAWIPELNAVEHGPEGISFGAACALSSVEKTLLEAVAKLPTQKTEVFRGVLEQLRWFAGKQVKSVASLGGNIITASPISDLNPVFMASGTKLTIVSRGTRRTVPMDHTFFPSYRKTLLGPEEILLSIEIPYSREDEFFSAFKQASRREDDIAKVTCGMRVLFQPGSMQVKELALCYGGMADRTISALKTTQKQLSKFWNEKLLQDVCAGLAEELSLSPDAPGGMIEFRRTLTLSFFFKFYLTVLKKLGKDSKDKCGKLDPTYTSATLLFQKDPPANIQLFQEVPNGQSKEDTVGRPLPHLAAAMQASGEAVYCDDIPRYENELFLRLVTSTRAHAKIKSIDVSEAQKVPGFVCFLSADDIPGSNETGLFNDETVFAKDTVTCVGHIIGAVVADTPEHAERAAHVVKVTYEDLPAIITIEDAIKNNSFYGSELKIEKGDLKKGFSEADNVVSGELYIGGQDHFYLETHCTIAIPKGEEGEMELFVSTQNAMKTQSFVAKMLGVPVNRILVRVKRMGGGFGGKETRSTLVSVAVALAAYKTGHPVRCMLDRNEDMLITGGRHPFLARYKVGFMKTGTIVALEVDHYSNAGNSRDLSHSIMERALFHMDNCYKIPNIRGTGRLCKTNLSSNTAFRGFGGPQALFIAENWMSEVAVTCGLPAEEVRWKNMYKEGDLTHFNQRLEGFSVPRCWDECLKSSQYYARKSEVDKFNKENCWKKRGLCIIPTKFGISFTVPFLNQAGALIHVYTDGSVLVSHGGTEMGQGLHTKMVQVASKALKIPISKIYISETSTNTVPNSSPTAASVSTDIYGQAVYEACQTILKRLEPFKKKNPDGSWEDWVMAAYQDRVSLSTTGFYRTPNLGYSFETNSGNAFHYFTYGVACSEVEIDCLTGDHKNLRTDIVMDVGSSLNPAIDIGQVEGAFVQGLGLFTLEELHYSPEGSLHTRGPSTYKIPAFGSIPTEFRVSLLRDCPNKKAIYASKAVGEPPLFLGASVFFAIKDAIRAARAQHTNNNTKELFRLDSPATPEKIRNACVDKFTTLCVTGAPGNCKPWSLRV

[7] = test system: ROS production; assay: ROS production measured by carboxy-H2-DCFDA staining; format: cell-based; settings: second method of ROS detection
[8] = biological target: Rac1 (Homo sapiens, UniProt P63000); assay: Rac loading assay; format: biochemical; settings: recombinant Rac1, compared with Mg2+ positive control
[9] = biological target: serotonin 5-HT2B receptor (Homo sapiens, UniProt P41595); assay: Competitive binding assay; design: species or system human or rodent
serotonin 5-HT2B receptor, sequence (P41595 whole entry): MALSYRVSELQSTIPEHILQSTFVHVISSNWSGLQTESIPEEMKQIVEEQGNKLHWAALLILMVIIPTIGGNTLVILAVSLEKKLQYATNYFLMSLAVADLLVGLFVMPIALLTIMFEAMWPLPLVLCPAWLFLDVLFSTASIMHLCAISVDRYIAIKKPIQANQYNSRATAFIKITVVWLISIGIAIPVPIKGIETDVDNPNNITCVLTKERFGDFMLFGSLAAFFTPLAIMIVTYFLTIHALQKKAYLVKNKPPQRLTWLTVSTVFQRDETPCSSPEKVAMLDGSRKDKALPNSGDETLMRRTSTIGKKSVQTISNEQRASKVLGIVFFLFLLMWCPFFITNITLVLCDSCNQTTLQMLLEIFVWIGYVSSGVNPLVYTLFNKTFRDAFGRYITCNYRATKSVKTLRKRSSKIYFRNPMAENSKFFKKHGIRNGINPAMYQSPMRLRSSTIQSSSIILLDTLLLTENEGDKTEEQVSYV

[10] = biological target: T3, serotonin 5-HT2C receptor (Homo sapiens, UniProt P28335); assay: Competitive binding assay; design: species or system human or rodent
T3 sequence (P28335 33-458): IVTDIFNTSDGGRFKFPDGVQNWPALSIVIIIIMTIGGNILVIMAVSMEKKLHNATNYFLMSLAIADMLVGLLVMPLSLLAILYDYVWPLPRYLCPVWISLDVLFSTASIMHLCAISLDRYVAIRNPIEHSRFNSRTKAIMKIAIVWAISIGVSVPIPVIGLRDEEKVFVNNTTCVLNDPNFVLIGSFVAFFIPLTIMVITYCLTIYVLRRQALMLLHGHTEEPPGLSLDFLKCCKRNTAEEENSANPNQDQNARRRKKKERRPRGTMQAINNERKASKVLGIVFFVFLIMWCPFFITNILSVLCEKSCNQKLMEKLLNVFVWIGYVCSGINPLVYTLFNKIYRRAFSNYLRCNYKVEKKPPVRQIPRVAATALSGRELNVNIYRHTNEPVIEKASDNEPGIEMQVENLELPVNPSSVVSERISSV

[11] = biological target: T4, adrenergic alpha2C receptor (Homo sapiens, UniProt P18825); assay: Competitive binding assay; design: species or system human or rodent
T4 sequence (P18825 1-462): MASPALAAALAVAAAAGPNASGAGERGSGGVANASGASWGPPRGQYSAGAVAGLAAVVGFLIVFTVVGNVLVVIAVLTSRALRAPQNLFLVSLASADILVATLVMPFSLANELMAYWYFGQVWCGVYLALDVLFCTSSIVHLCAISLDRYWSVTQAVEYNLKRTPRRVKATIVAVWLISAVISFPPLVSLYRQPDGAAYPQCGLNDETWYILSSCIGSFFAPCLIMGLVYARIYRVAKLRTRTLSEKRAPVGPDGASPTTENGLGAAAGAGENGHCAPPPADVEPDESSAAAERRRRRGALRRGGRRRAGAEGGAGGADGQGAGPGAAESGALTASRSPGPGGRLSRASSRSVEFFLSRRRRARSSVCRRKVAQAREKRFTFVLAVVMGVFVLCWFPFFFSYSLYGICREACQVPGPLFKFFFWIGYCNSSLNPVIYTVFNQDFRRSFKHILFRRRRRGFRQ

[12] = test system: G-protein coupled receptors (GPCRs), channels and transporters expressed in the CNS; assay: Competitive binding to a large battery of CNS receptors; design: species or system human or rodent
[13] = test system: DLD1 cells; assay: SrcYF-induced invadopodia formation; format: cell-based, human; settings: SrcYF-transfected DLD1 cells, treated 1hr; ML171 10 μM
[14] = biological target: T1, Nox1; assay: HEK293-Nox1 reconstituted cell system, ROS generation by CL assay; settings: HEK293-Nox1 reconstituted cell system treated with ML171
[15] = read-out: Micromolar IC50 HT29 Assay, HT29 cell-based assay, ROS generation, SAR study
[16] = HT29 cell-based assay, ROS generation, SAR study
[17] = secondary concentration-response analysis

- IC50 [1, 15]: 0.25 µM
SMILES: Clc1ccc2c(c1)Nc1ccccc1S2 [SR-01000596948-2]

- Micromolar IC50 HT29 Assay [1, 16]: Inactive (AID 2808)
SMILES: Cl.Cl.OCCN1CCN(CCCN2c3ccccc3Sc3ccc(C(F)(F)F)cc32)CC1 [SR-01000003048-5, Fluorophenazine, reference compound]

- Micromolar IC50 HT29 Assay [1, 16]: Inactive (AID 2808)
SMILES: CN(C)CCCN1c2ccccc2Sc2ccccc21 [SR-01000000228-4, promazine, reference compound]

- IC50 [1]: > 50 µM
- Micromolar IC50 HT29 Assay [1, 16]: Inactive (AID 2808)
SMILES: CN(C)CCCN1c2ccccc2Sc2ccc(Cl)cc21 [chlorpromazine, reference compound]
- invadopodia formation [13]: did not observe a decreased ability of DLD1 cells to form cortactin-positive, F-actin-rich invadopodia

- Micromolar IC50 HT29 Assay [1, 16]: Inactive (AID 2808)
SMILES: OCCN1CCN(CCCN2c3ccccc3Sc3ccc(Cl)cc32)CC1 [SR-01000000137-4]

The next lines start with the compound.

SMILES: COc1ccc2c(c1)Sc1ccc(Cl)cc1N2 [SR-03000000698-1]
- IC50 [1, 15]: 0.177 µM

SMILES: CN1CCN(CCCN2c3ccccc3Sc3ccc(C(F)(F)F)cc32)CC1 [trifluperazine, reference compound]
- ability to block Nox1-dependent ROS generation [1]: unable to block Nox1-dependent ROS generation

SMILES: c1ccc2c(c1)[I+]c1ccccc1-2 [DPI, diphenylene iodonium, reference compound]
- mitochondrial ROS generation [2]: slightly reduced ROS generation in mitochondria
- superoxide formation [3]: dramatically inhibit superoxide formation
- superoxide formation [4]: dramatically inhibit superoxide formation
- ECM degradation [5]: blocked this effect

SMILES: CN(C)CCCN1c2ccccc2Sc2ccc(C(F)(F)F)cc21 [SR-01000000224-4, Triflupromazine, reference compound]
- Micromolar IC50 HT29 Assay [1, 16]: Inactive (AID 2808)

SMILES: CC(=O)c1ccc2c(c1)Nc1ccccc1S2 [ML171, 2-acetylphenothiazine]
- inhibition of XO-dependent ROS generation [6]: unable to inhibit XO-dependent ROS generation
- ROS production by carboxy-H2-DCFDA staining [7]: efficiently blocks ROS production
- mitochondrial ROS generation [2]: did not decrease mitochondrial ROS generation
- block of Rac1 loading with GTP [8]: only marginally block Rac1 loading
- % of inhibition ([9]; primary binding assay): > 60%
- Ki [9, 17]: micromolar range
- % of inhibition ([10]; primary binding assay): > 60%
- Ki [10, 17]: micromolar range
- % of inhibition ([11]; primary binding assay): > 60%
- Ki [11, 17]: micromolar range
- binding to receptors of the battery [12]: did not significantly bind most of the receptors tested
- invadopodia formation [13]: strongly decreased SrcYF-induced invadopodia formation
- ECM degradation [5]: strongly reduced the ability of SrcYF-transfected DLD1 cells to degrade the ECM
- rescue of ROS generation by over-expression of Nox1, NoxA1 or NoxO1 [14]: only increasing over-expression of Nox1 could rescue ROS generation

SMILES: CCOC(=O)Nc1ccc2c(c1)Nc1ccccc1S2 [SR-01000477673-3]
- IC50 [1, 15]: 0.92 µM

SMILES: CC(O)c1ccc2c(c1)Nc1ccccc1S2 (stereo not drawn) [SR-03000000760-1]
- IC50 [1, 15]: 0.36 µM

SMILES: c1ccc2c(c1)Nc1ccccc1S2 [SR-01000721844-3]
- IC50 [1, 15]: 0.37 µM

SMILES: COc1ccc2c(c1)Sc1ccccc1N2 [SR-01000025134-3]
- IC50 [1, 15]: 0.94 µM

SMILES: CN1CCN(CCCN2c3ccccc3Sc3ccc(C(F)(F)F)cc32)CC1.Cl.Cl [SR-01000003020-6]
- Micromolar IC50 HT29 Assay [1, 16]: Inactive (AID 2808)

SMILES: O=[N+]([O-])c1ccc2c(c1)Sc1ccc(C(F)(F)F)cc1N2 [SR-03000000695-1]
- IC50 [1, 15]: 1.4 µM

SMILES: OCCN1CCN(CCCN2c3ccccc3Sc3ccc(Cl)cc32)CC1 [perphenazine, reference compound]
- ability to block Nox1-dependent ROS generation [1]: unable to block Nox1-dependent ROS generation

SMILES: Cc1ccc(S(=O)(=O)c2ccc3c(c2)Sc2ccc(Cl)cc2N3)cc1 [SR-03000000707-1]
- IC50 [1, 15]: 5.3 µM

— paper PMC2955773 (ACS chemical biology, 2010)
